This note sets out measurements from ChEMBL document CHEMBL5729557, “5-membered heteroaryl carboxamide compounds for treatment of HBV” (2023).

In general, EC50 refers to the midpoint of the concentration-response curve.

Some results are limits rather than exact numbers.

The nature of the test: Assay Measuring Activity of Test Compounds on Viral Production from HepAD38 Cells: HepAD38 cells grown in a T-150 flask (Corning, cat #: 430825) with Growth Medium (DMEM/F12 (1:1) (Hyclone, cat #: SH30023.02), 1× Pen/Strep (Invitrogen, cat #: 15140-122), 10% FBS (Tissue Culture Biologics, cat #: 101), 250 μg/mL G418 (Alfa Aesar, cat #: J62671), 1 μg/mL Tetracycline (Teknova, cat #: T3320)) were detached with 0.25% trypsin-EDTA to (Invitrogen, cat #: 25200-056). Tetracycline-free treatment medium (15 mL DMEM/F12 (1:1) 1× Pen/step, with 2% FBS, Tet-system approved (Clontech, cat #: 631106) were then added to mix, transferred into a 50 ml conical tube (Falcon, cat #: 21008-918,) and spun at 1300 rpm for 5 min. Pelleted cells were then re-suspended/washed with 50 mL of 1×DPBS (Invitrogen, cat #: 14190-136) 2 times and 50 mL treatment medium twice. HepAD38 cells were then re-suspended with 10 mL of treatment medium, syringed and counted. Wells of 96-well clear bottom TC plate (Corning, cat #: 3904,) were seeded at 50,000 cells/well in 180 μL of treatment medium, and 20 μL of either 10% DMSO (Sigma, cat #: D4540) as controls or a 10× solution of test compounds in 10% DMSO in treatment media was added for a final compound concentration starting at 10 μM, and plates were incubated in 5% CO2 incubator at 37° C. for 5 days.Subsequently viral load production was assayed by quantitative PCR (qPCR) of the HBV core sequence. PCR reaction mixture containing forward primers HBV-f 5′-CTGTGCCTTGGGTGGCTTT-3′ (IDT DNA), Reverse primers HBV-r 5′-[…]-3′ (IDT DNA), Fluorescent TaqMan™ Probes HBV-probe 5′-FAM/AGCTCCAAA/ZEN/[…]/3IABkFQ-3′ (IDT DNA), 10 μL/well of PerfeCTa® qPCR ToughMix® (Quanta Biosciences, Cat #: 95114-05K), and 6 μL/well of DEPC water (Alfa Aesar, cat #: J62087) was prepared. […] of supernatant was added to 16 μL of the reaction mixture in a qPCR plate (Applied Biosytems, Cat #: 4309849), sealed with a film (Applied Biosystems, Cat #: 4311971), centrifuged for a few seconds, and subsequently run on an Applied Biosystems VIIA7. The PCR mixture was incubated at 45° C. for 5 min, then 95° C. for 10 min, followed by 40 cycles of 10 seconds at 95° C. and 20 seconds at 60° C. Viral load was quantified against known HBV DNA standards by using ViiA™ 7 Software. Viral load in the supernatant from wells with treated cells were compared against viral load in supernatant from DMSO control wells (>3 per plate). Cell viability assay was performed with CellTiter-Glo Luminescent Cell Viability Assay (Promega, cat #: G7573) with modification. Mixed appropriate amount of CellTiter-Glo (CTG) 1×DPBS in a 1:1 ratio, added 100 uL of the mixture to each well followed completely removal of all supernatant in each well without touching cell surface. Incubated the plate at room temperature for 10 min on an orbital shaker, and then read the plate with a plate reader (TECAN M1000 or Envision). The conditions noted are these: HePAD38. Background: In qPCR the cycle at which signal appears reflects the starting amount.

With `Cn1nc(C2CC3CC(O)(CS(=O)(=O)CCCN4CCNC(=O)C4)CC3C2)c(C(=O)Nc2ccc(F)c(Cl)c2)c1N` (stereo unspecified), the half-maximal effective concentration (EC50) entry is “in the range around 5250 nM”.
Regarding `Cn1nc([C@@H]2CC3CC(O)(CN4CCOCC4)C[C@@H]3C2)c(C(=O)Nc2ccc(F)c(Cl)c2)c1N` (stereo partly specified), the EC50 result was “in the range around 5250 nM”.
With `COc1cc(C(=O)NCCS(C)(=O)=O)ccc1[C@H]1CC[C@@H](c2nn(C)c(N)c2C(=O)Nc2ccc(F)c(Cl)c2)C1` the entry was “in the range around 300 nM”; with `CC(C)OCC1(O)CC2C[C@@H](c3nn(C)c(N)c3C(=O)Nc3ccc(F)c(Cl)c3)C[C@@H]2C1` (stereo partly specified), “in the range around 300 nM”; with `Cn1nc([C@@H]2CC3CC(O)(CSCCO)C[C@@H]3C2)c(C(=O)Nc2ccc(F)c(Cl)c2)c1N` (stereo partly specified), below 100 nM.
With `COc1cc(C(O)NCCN)ccc1C1CCC(c2nn(C)c(N)c2C(=O)Nc2ccc(F)c(Cl)c2)C1` (stereo unspecified) the entry was “in the range around 300 nM”.
Take `Cn1cc(C(=O)Nc2ccc(F)c(Cl)c2)c(C2CC3CC(=O)CC3C2)n1` (stereo unspecified): the half-maximal effective concentration (EC50) result was “in the range around 5250 nM”.
As to `CCOC(=O)c1c(C2CCC(c3ccccc3)C2)noc1N` (stereo unspecified), the EC50 result is “in the range around 300 nM”.
With `COc1cc(-c2nccn2C)ccc1[C@H]1CC[C@@H](c2nn(C)c(N)c2C(=O)Nc2ccc(F)c(Cl)c2)C1` the entry was “in the range around 300 nM”.
The entry for `COc1cc(-c2c[nH]cn2)ccc1[C@H]1CC[C@@H](c2nn(C)c(N)c2C(=O)Nc2ccc(F)c(Cl)c2)C1` is “in the range around 300 nM”.
The entry for `Cn1nc([C@@H]2CC3CC(O)(CN4CCCCC4)C[C@@H]3C2)c(C(=O)Nc2ccc(F)c(Cl)c2)c1N` (stereo partly specified) is “in the range around 300 nM”; for `COc1cc(-c2ncc[nH]2)ccc1[C@H]1CC[C@@H](c2nn(C)c(N)c2C(=O)Nc2ccc(F)c(Cl)c2)C1` it is “in the range around 5250 nM”.
With `Cn1nc([C@@H]2CC3CC(O)(CS(=O)(=O)CCCN4CCNCC4=O)C[C@@H]3C2)c(C(=O)Nc2ccc(F)c(Cl)c2)c1N` (stereo partly specified), the 50% effective concentration (EC50) entry was “in the range around 5250 nM”.
Consider `CC(C)OCC1(O)CC2C[C@@H](c3nn(C)c(N)c3C(=O)Nc3ccc(F)c(Cl)c3)C[C@H]2C1` (stereo partly specified), for which the EC50 result is “in the range around 5250 nM”.
`Cn1nc([C@@H]2CC3CC(O)(CN4CCOCC4)C[C@H]3C2)c(C(=O)Nc2ccc(F)c(Cl)c2)c1N` (stereo partly specified): the half-maximal effective concentration (EC50) entry is “in the range around 300 nM”.
The entry for `COc1cc(-c2cnn(C)c2)ccc1C1CCC(c2nn(C)c(N)c2C(=O)Nc2ccc(F)c(Cl)c2)C1` (stereo unspecified) is “in the range around 300 nM”; for `COc1cc(-c2nccn2C)ccc1[C@@H]1CC[C@@H](c2nn(C)c(N)c2C(=O)Nc2ccc(F)c(Cl)c2)C1` it is below 100 nM.
Consider `COc1cc(-c2c[nH]cn2)ccc1[C@@H]1CC[C@@H](c2nn(C)c(N)c2C(=O)Nc2ccc(F)c(Cl)c2)C1`, for which the EC50 is below 100 nM.
With `Cn1nc([C@@H]2CC3CC(O)(CSCCN4CCOCC4)C[C@H]3C2)c(C(=O)Nc2ccc(F)c(Cl)c2)c1N` (stereo partly specified) the figure was below 100 nM; with `Cn1nc([C@@H]2CC3CC(O)(CC(=O)O)C[C@@H]3C2)c(C(=O)Nc2ccc(F)c(Cl)c2)c1N` (stereo partly specified), below 100 nM.
The figure for `Cn1nc(C2CC3CC4(CNC(=O)C4)CC3C2)c(C(=O)Nc2ccc(F)c(Cl)c2)c1N` (stereo unspecified) is below 100 nM.
The figure for `COc1cc(-c2cn(C)cn2)ccc1[C@@H]1CC[C@@H](c2nn(C)c(N)c2C(=O)Nc2ccc(F)c(Cl)c2)C1` is below 100 nM; for `COc1cc(-c2cscn2)ccc1C1CCC(c2nn(C)c(N)c2C(=O)Nc2ccc(F)c(Cl)c2)C1` (stereo unspecified) it is below 100 nM.
For the compound `Cn1nc(C2CCC(c3cnc(C(F)(F)F)s3)C2)c(C(=O)Nc2ccc(F)c(Cl)c2)c1N` (stereo unspecified), the 50% effective concentration (EC50) result is “in the range around 5250 nM”.
The figure for `Cn1nc([C@@H]2CC3CC(O)(CSCCN4CCOCC4)C[C@@H]3C2)c(C(=O)Nc2ccc(F)c(Cl)c2)c1N` (stereo partly specified) is below 100 nM; for `Cn1nc([C@@H]2CC3CC(O)(CN4CCCCC4)C[C@H]3C2)c(C(=O)Nc2ccc(F)c(Cl)c2)c1N` (stereo partly specified) it is “in the range around 300 nM”.
With `Cn1cc(C(=O)Nc2ccc(F)c(Cl)c2)c(C2CC3CC(O)(CS(C)(=O)=O)CC3C2)n1` (stereo unspecified) the entry was “in the range around 5250 nM”; with `Cn1nc([C@@H]2CC3CC(O)(CS(=O)(=O)CCCN4CCCCC4)C[C@H]3C2)c(C(=O)Nc2ccc(F)c(Cl)c2)c1N` (stereo partly specified), “in the range around 300 nM”.
With `Cn1nc(C2CCC(c3csc(C(F)(F)F)n3)C2)c(C(=O)Nc2ccc(F)c(Cl)c2)c1N` (stereo unspecified) the entry was “in the range around 5250 nM”.
On to `CS(=O)(=O)CC1(O)CC2CC(c3n[nH]c(N)c3C(=O)Nc3ccc(F)c(Cl)c3)CC2C1` (stereo unspecified), for which the concentration for a half-maximal effect (EC50) was below 100 nM.
Turning to `Cn1nc([C@@H]2CC3CC(O)(CSCCO)C[C@H]3C2)c(C(=O)Nc2ccc(F)c(Cl)c2)c1N` (stereo partly specified), the 50% effective concentration (EC50) was below 100 nM.
Turning to `COc1cc(-c2cn(C)cn2)ccc1[C@H]1CC[C@@H](c2nn(C)c(N)c2C(=O)Nc2ccc(F)c(Cl)c2)C1`, the half-maximal effective concentration (EC50) result is “in the range around 300 nM”.
For the compound `COc1cc(-c2ncc[nH]2)ccc1[C@@H]1CC[C@@H](c2nn(C)c(N)c2C(=O)Nc2ccc(F)c(Cl)c2)C1`, the 50% effective concentration (EC50) is below 100 nM.
With `COc1cc(-c2nccs2)ccc1C1CCC(c2nn(C)c(N)c2C(=O)Nc2ccc(F)c(Cl)c2)C1` (stereo unspecified) the entry was “in the range around 5250 nM”; with `Cn1nc([C@@H]2CC3CC(O)(CC(=O)O)C[C@H]3C2)c(C(=O)Nc2ccc(F)c(Cl)c2)c1N` (stereo partly specified), below 100 nM; with `Cn1nc(C2CCC(c3cccnc3)C2)c(C(=O)Nc2ccc(F)c(Cl)c2)c1N` (stereo unspecified), below 100 nM.
